Experimental data from patent US8258140B2 (Astrazeneca AB, priority 2009, dated 2012).

Each compound was assayed against T1, Androgen Receptor (AR) in the LNCaP prostate carcinoma cell line (Homo sapiens, UniProt P10275, T878A) (assay: LNCaP Androgen Receptor Down-Regulation Cell Assay (immunofluorescence end point)). Settings: LNCaP cells, compound incubation 20-22 hours, concentration giving 50% reduction of the AR signal.
T1 construct: cell based immuno-fluorescence assay using the LNCaP prostate epithelial cell line; host or cells: LNCaP clone FGC
T1 sequence (P10275 1-920 T878A): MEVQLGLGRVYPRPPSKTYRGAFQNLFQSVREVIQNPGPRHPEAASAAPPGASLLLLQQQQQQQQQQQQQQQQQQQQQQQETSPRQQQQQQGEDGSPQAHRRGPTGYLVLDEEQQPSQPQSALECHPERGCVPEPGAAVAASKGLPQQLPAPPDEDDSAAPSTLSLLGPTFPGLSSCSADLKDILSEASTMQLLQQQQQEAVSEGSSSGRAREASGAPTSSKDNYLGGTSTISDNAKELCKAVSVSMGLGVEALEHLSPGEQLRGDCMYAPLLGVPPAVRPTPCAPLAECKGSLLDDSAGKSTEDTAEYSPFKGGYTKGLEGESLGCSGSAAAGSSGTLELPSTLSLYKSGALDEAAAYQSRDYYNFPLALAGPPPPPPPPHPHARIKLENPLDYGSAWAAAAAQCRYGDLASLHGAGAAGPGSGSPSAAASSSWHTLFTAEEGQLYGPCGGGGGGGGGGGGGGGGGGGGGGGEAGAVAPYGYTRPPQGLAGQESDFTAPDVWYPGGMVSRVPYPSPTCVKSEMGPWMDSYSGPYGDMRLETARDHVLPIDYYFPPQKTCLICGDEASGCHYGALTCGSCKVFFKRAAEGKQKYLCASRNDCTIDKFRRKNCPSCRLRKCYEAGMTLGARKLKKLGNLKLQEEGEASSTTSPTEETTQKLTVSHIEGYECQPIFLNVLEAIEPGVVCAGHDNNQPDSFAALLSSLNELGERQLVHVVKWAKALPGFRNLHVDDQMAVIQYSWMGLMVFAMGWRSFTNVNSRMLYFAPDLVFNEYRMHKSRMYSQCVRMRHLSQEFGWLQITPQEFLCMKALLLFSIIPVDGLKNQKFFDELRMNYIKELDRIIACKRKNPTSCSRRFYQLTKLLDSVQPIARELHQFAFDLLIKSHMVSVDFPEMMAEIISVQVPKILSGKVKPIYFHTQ
Assay type: cell-based
Protocol: The ability of compounds to reduce Androgen Receptor (AR) numbers was assessed in a cell based immuno-fluorescence assay using the LNCaP prostate epithelial cell line.
This immunofluorescence end point assay measures the ability of a test compound to down-regulate and reduce measured levels of the AR in the LNCaP prostate carcinoma cell line (LNCaP clone FGC (CRL-1740) obtained from the American Type Culture Collection (ATCC)).
LNCaP cells were cultured in Growth Medium (phenol red free Roswell Park Memorial Institute (RPMI) 1640 (Invitrogen Code no. 11835-063) containing 2 mM L-Glutamine (Invitrogen Code no. 25030-024) and 1% (v/v) Penicillin/Streptomycin (10000 units/ml Penicillin and 10000 μg/ml of Streptomycin utilising penicillin G (sodium salt) and streptomycin sulphate: prepared in normal saline, Invitrogen Code no. 15140122) and 10% (v/v) foetal bovine serum (FBS)) in a 5% CO2 air incubator at 37° C. Cells for assay were harvested from T175 stock flasks by washing once in PBS (phosphate buffered saline, pH 7.4) (Invitrogen Code no. 14190-094) and harvested using 5 mls of 1× Trypsin/ethylaminediaminetetraacetic acid (EDTA) (10× Trypsin-EDTA, 5.0 g/L Trypsin, 2.0 g/L of EDTA.4Na and 8.5 g/L of NaCl, without Phenol Red, Invitrogen Code no. 15400-054) diluted in PBS solution. A 5 ml volume of Growth Medium was added to each flask (as above except that 5% (v/v) charcoal stripped FBS (HyClone Code no. SH30068.03) was included instead of 10% (v/v) FBS). Cells were syringed at least twice using a sterile 18 G×1.5″ (1.2×40 mm) broad gauge needle and cell density was measured using a haemocytometer. Cells were further diluted in Growth Medium plus 5% (v/v) charcoal stripped FBS and seeded at a density of 6.5×10^3 cells per well (in 90 ul) into transparent, black, tissue culture treated 96 well plates (Packard, No. 6005182).
Test data reported herein was generated using two different compounds preparation and dosing methods. In method (1) a 10 mM compound stock solution in 100% (v/v) DMSO was serially diluted in 4-fold steps in 100% (v/v) DMSO using a Thermo Scientific Matrix SerialMate. The diluted compounds were then further diluted 1 in 30 in assay media using a Thermo Scientific Matrix PlateMate and a 10 μl aliquot of this dilution was dosed to cells manually using a multi-channel pipette. In method (2) starting with a 10 mM compound stock solution, the Labcyte Echo 550 was used to generate a compound concentration response set diluted in 30 μl of assay media. The Echo 550 is a liquid handler that uses acoustic technology to perform direct microplate-to-microplate transfers of DMSO compound solutions. The system can be programmed to transfer volumes as low as 2.5 nL in multiple increments between microplates and in so doing generates a serial dilution of compound which is then back-filled to normalise the DMSO concentration across the dilution range. A 10 μl volume of diluted compound is then dosed to cells using a Thermo Scientific Matrix PlateMate.
Plates were incubated overnight at 37° C., 5% CO2. Wells were then dosed with compound prepared by one of the 2 methods above and further incubated for 20-22 hours at 37° C., 5% CO2. Plates were fixed by the addition of 20 μl of 10% (v/v) formaldehyde solution (in PBS) to each well (final formaldehyde conc.=1.67% (v/v)) and left at room temperature for 10 mins. This fixative solution was removed and cells were washed with 250 μl of PBS/0.05% (v/v) Tween 20 (PBST) using an automated plate washer. This process was then repeated twice more.
Immunostaining was performed at room temperature. Cells were permeabilised by the addition of 35 μl of PBS containing 0.5% Tween 20 and incubated for 1 hour at room temperature. Permeabilisation solution was removed and cells were washed with 250 μl of PBST using an automated plate washer. This process was then repeated twice more. […]

SMILES	IC50
FC(F)(F)c1ccn(CCOc2ccc(N3CCN(C4=Nn5c(nnc5C(F)(F)F)CC4)CC3)cc2)n1 [Example 40, 3-(trifluoromethyl)-6-[4-(4-{2-[3-(trifluoromethyl)-1H-pyrazol-1-yl]ethoxy}phenyl)piperazin-1-yl]-7,8-dihydro[1,2,4]triazolo[4,3-b]pyridazine]	1.5 µM
CCc1nccn1CCOc1ccc(C2CCN(C3=Nn4c(nnc4C(F)(F)F)CC3)CC2)cc1 [Example 42, 6-(4-{4-[2-(2-ethyl-1H-imidazol-1-yl)ethoxy]phenyl}piperidin-1-yl)-3-(trifluormethyl)-7,8-dihydro[1,2,4]triazolo[4,3-b]pyridazine]	0.66 µM
Cc1cc(C)n(CCOc2ccc(C3CCN(C4=Nn5c(nnc5C(F)(F)F)CC4)CC3)cc2)n1 [Example 43, 6-(4-{4-[2-(3,5-dimethyl-1H-pyrazol-1-yl)ethoxy]phenyl}piperidin-1-yl)-3-(trifluoromethyl)-7,8-dihydro[1,2,4]triazolo[4,3-b]pyridazine]	1 µM
FC(F)(F)c1ccn(CCOc2ccc(C3CCN(C4=Nn5c(nnc5C(F)(F)F)CC4)CC3)cc2)n1 [Example 44, 3-(trifluoromethyl)-6-[4-(4-{2-[3-(trifluoromethyl)-1H-pyrazol-1-yl]ethoxy}phenyl)piperidin-1-yl]-7,8-dihydro[1,2,4]triazolo[4,3-b]pyridazine]	0.55 µM
O=C1CN(CCOc2ccc(C3CCN(C4=Nn5c(nnc5C(F)(F)F)CC4)CC3)cc2)CCN1C1CC1 [Example 47, 1-cyclopropyl-4-[2-(4-{1-[3-(trifluoromethyl)-7,8-dihydro[1,2,4]triazolo[4,3-b]pyridazin-6-yl]piperidin-4-yl}phenoxy)ethyl]piperazin-2-one]	1.4 µM
CC(=O)N1CCCN(CCOc2ccc(C3CCN(C4=Nn5c(nnc5C(F)(F)F)CC4)CC3)cc2)CC1 [Example 48, 6-(4-{4-[2-(4-acetyl-1,4-diazepan-1-yl)ethoxy]phenyl}piperidin-1-yl)-3-(trifluoromethyl)-7,8-dihydro[1,2,4]triazolo[4,3-b]pyridazine]	0.7 µM

More lines, in order of falling IC50, values ahead:

IC50	SMILES
12 µM	CC(=O)N1CCN(CCOc2ccc(C3(O)CCN(C4=Nn5c(nnc5C(F)(F)F)CC4)CC3)cc2)CC1 [Example 45, 4-{4-[2-(4-acetylpiperazin-1-yl)ethoxy]phenyl}-1-[3-(trifluoromethyl)-7,8-dihydro[1,2,4]triazolo[4,3-b]pyridazin-6-yl]piperidin-4-ol]
1.5 µM	CCN1CCN(CCOc2ccc(C3CCN(C4=Nn5c(nnc5C(F)(F)F)CC4)CC3)cc2)CC1=O [Example 46, 1-ethyl-4-[2-(4-{1-[3-(trifluoromethyl)-7,8-dihydro[1,2,4]triazolo[4,3-b]pyridazin-6-yl]piperidin-4-yl}phenoxy)ethyl]piperazin-2-one]
0.76 µM	C[C@H]1C(=O)N(C)CCN1CCOc1ccc(C2CCN(C3=Nn4c(nnc4C(F)(F)F)CC3)CC2)cc1 [Example 50, (3S)-1,3-dimethyl-4-[2-(4-{1-[3-(trifluoromethyl)-7,8-dihydro[1,2,4]triazolo[4,3-b]pyridazin-6-yl]piperidin-4-yl}phenoxy)ethyl]piperazin-2-one]
0.32 µM	CC(=O)N1CCN(CCOc2ccc(C3CCN(C4=Nn5c(nnc5C(F)(F)F)CC4)CC3)cc2)C[C@@H]1C [Example 52, 6-[4-(4-{2-[(3S)-4-acetyl-3-methylpiperazin-1-yl]ethoxy}phenyl)piperidin-1-yl]-3-(trifluoromethyl)-7,8-dihydro[1,2,4]triazolo[4,3-b]pyridazine]
0.045 µM	C[C@@H]1C(=O)N(C)CCN1CCOc1ccc(C2CCN(C3=Nn4c(nnc4C(F)(F)F)CC3)CC2)cc1 [Example 49, (3R)-1,3-dimethyl-4-[2-(4-{1-[3-(trifluoromethyl)-7,8-dihydro[1,2,4]triazolo[4,3-b]pyridazin-6-yl]piperidin-4-yl}phenoxy)ethyl]piperazin-2-one]
